Test results: PMC7326016, “Structural Studies of Glutamate Dehydrogenase (Isoform 1) From Arabidopsis thaliana, an Important Enzyme at the Branch-Point Between Carbon and Nitrogen Metabolism” (Frontiers in Plant Science, 2020)

Legend:
[1] = molecular target: T1, Glutamate dehydrogenase isoform 1 (AtGDH1) (Arabidopsis thaliana, UniProt Q43314); assay: crystal structure at […] Å (one closed subunit; ligand captured from E. coli; polder map); assay type: binding
T1 construct: gene GDH1; full-length, 411 residues, homohexamer

[2] = molecular target: T1, Glutamate dehydrogenase isoform 1 (AtGDH1); assay: ITC (in presence of […] 2OG) and crystal structure at […] Å; assay type: binding

T1 sequence (Q43314 whole entry, canonical isoform): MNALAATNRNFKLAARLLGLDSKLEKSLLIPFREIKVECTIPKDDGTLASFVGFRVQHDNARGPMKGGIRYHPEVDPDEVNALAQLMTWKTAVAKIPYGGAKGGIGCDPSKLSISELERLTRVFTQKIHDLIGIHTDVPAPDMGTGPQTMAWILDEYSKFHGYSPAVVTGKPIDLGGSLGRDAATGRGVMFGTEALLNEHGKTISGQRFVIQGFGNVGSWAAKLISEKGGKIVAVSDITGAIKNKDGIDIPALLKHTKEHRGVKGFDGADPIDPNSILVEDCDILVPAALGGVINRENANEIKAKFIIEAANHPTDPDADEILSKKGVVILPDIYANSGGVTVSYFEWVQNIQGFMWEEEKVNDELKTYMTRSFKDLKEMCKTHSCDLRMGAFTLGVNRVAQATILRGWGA

| Kd [2] [µM] | Structure (SMILES) | crystal structure at 2.03 Å (one closed subunit); ligand captured from E. coli; p [1] |
| --- | --- | --- |
| – | O=C(O)CCC(=O)C(=O)O [2-oxoglutarate] | the closed conformation subunit contains 2OG, the GDH reaction product, bound in the active site |
| 72 ± 6 | NC(=O)c1ccc[n+]([C@@H]2O[C@H](COP(=O)([O-])OP(=O)(O)OC[C@H]3O[C@@H](n4cnc5c(N)ncnc54)[C@H](O)[C@@H]3O)[C@@H](O)[C@H]2O)c1 [NAD^+] | – |
